For 17 compounds, EC50 and inhibition results are on record in US10287267B2, “Isoquinolin-3-yl carboxamides and preparation and use thereof” (Samumed, LLC, priority 2016, dated 2019).

Where two headings read alike, the source gives them in different places.

In assay [1] the test system is Wnt pathway (Sp5-Luc reporter, TCF/LEF binding sites) in SW480 colon carcinoma cells. As to the kind of experiment: Screening assay for Wnt activity: Sp5-Luc reporter gene assay.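 As to all read-outs here: firefly luciferase luminescence read in stably transduced SW480 cells carrying the Sp5 promoter reporter with eight TCF/LEF sites, compounds given in 0.1% DMSO final.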 Format: cell-based, human. To be noted: Homo sapiens; for EC50: Sp5-Luc reporter, SW480 cells, 36 to 48 hours. In general terms: Reporter assays use an easily measured gene product as a stand-in for the process of interest.
Experimental: The screening assay for Wnt activity is described as follows.
Following incubation, 15 μl of BriteLite Plus luminescence reagent (Perkin Elmer) was added to each well of the 384-well assay plates. The plates were placed on an orbital shaker for 2 min and then luminescence was quantified using the Envision (Perkin Elmer) plate reader.

The target in assay [2] is recombinant DYRK1A kinase (Homo sapiens (Human), UniProt Q13627). As to the kind of experiment: DYRK1A kinase assay (Ser/Thr 18 peptide Z-lyte FRET).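 Also: Read-out is the coumarin to fluorescein emission ratio, referenced to unphosphorylated (0%) and phosphorylated (100%) Ser/Thr 18 peptide controls, values from dose-response curves by non-linear regression.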 To be noted: 30 μM ATP, 1 h room temperature. It counts as biochemical.
The target of assay [3] is recombinant GSK3β kinase (Homo sapiens (Human), UniProt P49841). Nature of the assay: GSK3β kinase assay (Ser/Thr 09 peptide Z-lyte FRET).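 Also: kinase activity read as coumarin to fluorescein emission ratio, 11-point threefold dilutions from 10 µM to 0.0003 µM in duplicate, unphosphorylated and phosphorylated peptide as 0% and 100% controls.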 Format: biochemical. As to conditions: 46 μM ATP, 1 h room temperature.
Sequence of recombinant GSK3β kinase (P49841 whole entry): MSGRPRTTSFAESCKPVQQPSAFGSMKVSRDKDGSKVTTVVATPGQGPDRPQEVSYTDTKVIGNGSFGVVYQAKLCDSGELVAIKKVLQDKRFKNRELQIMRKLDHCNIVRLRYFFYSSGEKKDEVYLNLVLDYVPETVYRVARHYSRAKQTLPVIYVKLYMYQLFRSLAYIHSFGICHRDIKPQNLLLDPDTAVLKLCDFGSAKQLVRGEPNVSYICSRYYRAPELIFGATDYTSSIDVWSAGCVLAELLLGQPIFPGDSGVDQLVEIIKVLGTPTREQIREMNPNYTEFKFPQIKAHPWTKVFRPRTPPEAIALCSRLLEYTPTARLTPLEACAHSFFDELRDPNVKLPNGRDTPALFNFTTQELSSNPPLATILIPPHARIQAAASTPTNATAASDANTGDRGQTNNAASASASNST
Assay [4] has as its system Tau phosphorylation at Ser396 (pSer396). As to the kind of experiment: Tau phosphorylation assay (pSer396 ELISA / western blot) in SH-SY5Y cells.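 Also: EC50 for reduction of Tau pSer396 in lysed cells, measured by colorimetric ELISA or chemiluminescent western blot, both using the same pSer396 antibody.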 Format: cell-based, human. To be noted: Homo sapiens, read-out: pSer396 Tau EC50. On the technique in general: ELISA stands for enzyme-linked immunosorbent assay.
The subject of assay [5] is SW480 colon carcinoma cells. Nature of the assay: Cell viability assay (CellTiter-Glo). Format: cell-based, human. To be noted: Homo sapiens; for EC50: 96 h, SW480 cells, CellTiter-Glo, four days incubation; for inhibition at 10 µM: SW480, read-out: percent inhibition at 10 μM.
Assay [6] deals with α-smooth muscle actin (αSMA) positive LL29 cells. Nature of the assay: Inhibition of fibrotic process: αSMA in TGF-β1 treated primary human fibroblasts from IPF patients.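 As to all read-outs here: controls were TGF-β1 stimulated wells with DMSO vehicle (positive) and cells given DMSO alone (negative), cultured in F12 medium with 1% fetal bovine serum.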 It counts as cell-based. To be noted: Homo sapiens, Fibroblast; for EC50: 96 h, Table 8, LL29 fibroblasts from IPF patients, TGF-β1 20 ng/mL, 4 days, dose-response 10 μM to 0.94 nM; for inhibition at 10 µM: read-out: percent value in parentheses beside EC50 >10 μM.

The test system of assay [7] is IL-6. Nature of the assay: IL-6 inhibition in LPS-stimulated human peripheral blood mononuclear cells (HTRF).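 As to all read-outs here: IL-6 detected by HTRF with an XL665- and Cryptate-labelled anti-IL-6 antibody pair, samples run in duplicate, EC50 obtained from a four-parameter Levenberg-Marquardt curve fit.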 Format: cell-based. As to conditions: Homo sapiens, PBMC; for EC50: Table 9, huPBMCs, LPS 50 ng/mL, 22 hours, dose-response starting from 10 μM; for inhibition at 10 µM: read-out: percent value in parentheses beside EC50 >10 μM. Background: In TR-FRET formats the signal depends on donor and acceptor labels being close together.
Experimental: After 22 hour incubation, a mixture of anti-IL6 XL665 and anti-IL-6 Cryptate diluted in reconstitution buffer (Catalog #62IL6PEC, Cisbio Inc., Bedford, Mass.) was added to each well. […] All samples were processed in duplicate. […] EC50 was determined using software generated by Dotmatics Limited (Windhill Bishops Stortford Herts, UK) using the Levenberg-Marquardt 4 parameter fitting procedure with finite different gradients.

Where [8] appears, read: SH-SY5Y cells, overnight (16-18 h) exposure.

For `CN1CCN(C[C@H]2CC[C@H](C(=O)Nc3cc4cc(-c5cn(C)nn5)ccc4cn3)CC2)CC1` [Compound 448, trans-N-(6-(1-Methyl-1H-1,2,3-triazol-4-yl)isoquinolin-3-yl)-4-((4-methylpiperazin-1-yl)methyl)cyclohexane-1-carboxamide], the EC50 (usually the midpoint of the concentration-response curve) in assay [1] was 289 nM; in assay [2], 1.2 nM; in assay [3], 11 nM; in assay [4] (setting [8]), 106 nM; in assay [5], 626 nM; in assay [6], 59 nM. In assay [7], a half-maximal response (EC50) required 2180 nM.
Consider `Cc1ncc(-c2ccc3cnc(NC(=O)C4CCC(F)(F)CC4)cc3c2)n1C` [Compound 121, N-(6-(1,2-Dimethyl-1H-imidazol-5-yl)isoquinolin-3-yl)-4,4-difluorocyclohexanecarboxamide], for which the EC50 was 3500 nM in assay [1]; 3.4 nM in assay [2]; 53 nM in assay [3]; 1030 nM in assay [4] (setting [8]); 4310 nM in assay [5]; 1080 nM in assay [6]. The same compound displayed an EC50 in assay [7] of 3650 nM.
`O=C(Nc1cc2cc(-c3cncs3)ccc2cn1)C1CCN(C2COC2)CC1` [Compound 737, 1-(Oxetan-3-yl)-N-(6-(thiazol-5-yl)isoquinolin-3-yl)piperidine-4-carboxamide]: the EC50 in assay [1] was 1290 nM; in assay [2], 1 nM; in assay [3], 62 nM; in assay [4] (setting [8]), 865 nM; in assay [5] it was 4340 nM; in assay [6], 80 nM. The same compound displayed an EC50 in assay [7] of 1180 nM.
Take `CC(C(=O)Nc1cc2cc(-c3cncn3C)ccc2cn1)N1CCCC1` (stereo not shown) [Compound 579, N-(6-(1-Methyl-1H-imidazol-5-yl)isoquinolin-3-yl)-2-(pyrrolidin-1-yl) propanamide]: the EC50 worked out at 899 nM in assay [1]; 25 nM in assay [2]; 48 nM in assay [3]; 62 nM in assay [4] (setting [8]); 954 nM in assay [5]; 167 nM in assay [6]. This compound displayed an EC50 in assay [7] of 1020 nM.
Take `CO[C@H]1CC[C@H](C(=O)Nc2cc3cc(-c4nnc(C)s4)ccc3cn2)CC1` [Compound 885, trans-4-Methoxy-N-(6-(5-methyl-1,3,4-thiadiazol-2-yl)isoquinolin-3-yl) cyclohexane-1-carboxamide]: the EC50 is 4480 nM in assay [1]; 34.6 nM in assay [2]; 46 nM in assay [3]; 878 nM in assay [4] (setting [8]); 7720 nM in assay [5]; 2620 nM in assay [6]. The EC50 in assay [7] is more than 10000 nM. Further, the inhibition at 10 µM in assay [7] is 7%.
`Cn1cc(-c2ccc3cnc(NC(=O)C4CCN(CC(=O)OC(C)(C)C)CC4)cc3c2)cn1` [Compound 1010, tert-Butyl 2-(4-((6-(1-methyl-1H-pyrazol-4-yl)isoquinolin-3-yl)carbamoyl)piperidin-1-yl)acetate]: the EC50 in assay [1] came to 2020 nM; in assay [2] it was 2.6 nM; in assay [3] it was 53 nM; in assay [4] (setting [8]) it was 622 nM; in assay [5], 3960 nM; in assay [6], 103 nM. In addition, in assay [7], the concentration for a half-maximal effect (EC50) is 1170 nM.
Turning to `Cc1nnc(-c2ccc3cnc(NC(=O)C4CCN(CCF)CC4)cc3c2)s1` [Compound 900, 1-(2-Fluoroethyl)-N-(6-(5-methyl-1,3,4-thiadiazol-2-yl)isoquinolin-3-yl) piperidine-4-carboxamide], the EC50 in assay [1] came out at 1010 nM; in assay [2], 2.9 nM; in assay [3], 11 nM; in assay [4] (setting [8]), 180 nM; in assay [5], 3880 nM; in assay [6], 449 nM. In assay [7], this compound returned an EC50 of 9860 nM.
For the compound `Cn1cc(-c2ccc3cnc(NC(=O)CN4C5CCC4CC5)cc3c2)cn1` [Compound 292, 2-(7-Azabicyclo[2.2.1]heptan-7-yl)-N-(6-(1-methyl-1H-pyrazol-4-yl)isoquinolin-3-yl)acetamide], the EC50 in assay [1] worked out at 3380 nM; in assay [2] it was 7.8 nM; in assay [3], 173 nM; in assay [4] (SH-SY5Y) it was 1350 nM; in assay [5], 2820 nM; in assay [6] it was 2220 nM. In assay [7], this compound gave an EC50 of 1120 nM.
On to `CN1CC2(CC(C(=O)Nc3cc4cc(-c5cncs5)ccc4cn3)C2)C1` [Compound 700, 2-Methyl-N-(6-(thiazol-5-yl)isoquinolin-3-yl)-2-azaspiro[3.3]heptane-6-carboxamide], for which the EC50 in assay [1] was 771 nM; in assay [2] it was 2.2 nM; in assay [3], 49 nM; in assay [4] (setting [8]) it was 513 nM; in assay [5] it was 623 nM; in assay [6], 275 nM. This compound yielded an EC50 in assay [7] of 380 nM.
For the compound `C[C@@H]1CCCN1CC(=O)Nc1cc2cc(-c3cnn(C)c3)ccc2cn1` [Compound 289, (R)—N-(6-(1-Methyl-1H-pyrazol-4-yl)isoquinolin-3-yl)-2-(2-methylpyrrolidin-1-yl)acetamide], the EC50 in assay [1] is 2650 nM; in assay [2], 13.7 nM; in assay [3] it was 62 nM; in assay [4] (setting [8]), 185 nM; in assay [5], 7760 nM; in assay [6], more than 10000 nM. Besides, it took 3200 nM to reach a half-maximal effect in assay [7] (EC50). For the same compound, the inhibition at 10 µM in assay [6] was found to be 14.3%.
As for `C[C@@H]1CN(CC(=O)Nc2cc3cc(-c4cnn(C)c4)ccc3cn2)C[C@H](C)O1` [Compound 344, 2-((2R,6S)-2,6-Dimethylmorpholino)-N-(6-(1-methyl-1H-pyrazol-4-yl)isoquinolin-3-yl)acetamide], the EC50 is 5470 nM in assay [1]; 10.5 nM in assay [2]; 175 nM in assay [3]; 3500 nM in assay [4] (setting [8]); 7680 nM in assay [5]; more than 10000 nM in assay [6]. In assay [7], this compound registered an EC50 of 9130 nM. Besides, in assay [6], the inhibition at 10 µM was determined as 24.3%.
For `Cn1cc(-c2ccc3cnc(NC(=O)C4CCN(Cc5ncco5)CC4)cc3c2)cn1` [Compound 360, N-(6-(1-Methyl-1H-pyrazol-4-yl)isoquinolin-3-yl)-1-(oxazol-2-ylmethyl) piperidine-4-carboxamide], the EC50 came out at 690 nM in assay [1]; 1.9 nM in assay [2]; 47 nM in assay [3]; 659 nM in assay [4] (setting [8]); 570 nM in assay [5]; 94 nM in assay [6]. The compound further gave an EC50 in assay [7] of 1170 nM.
With `CC(C)CN1CCC(F)(C(=O)Nc2cc3cc(-c4cnc5n4CCNC5)ccc3cn2)CC1` [Compound 1021, 4-Fluoro-1-isobutyl-N-(6-(5,6,7,8-tetrahydroimidazo[1,2-a]pyrazin-3-yl)isoquinolin-3-yl)piperidine-4-carboxamide], the inhibition at 10 µM amounted to 16.5% in assay [1] (SW480, read-out: percent inhibition at 10 μM); 11.6% in assay [5]; 5.1% in assay [7]. Also, the EC50 in assay [1] was more than 10000 nM; in assay [2], 42.2 nM; in assay [3] it was 1580 nM; in assay [4] (setting [8]), 5700 nM; in assay [5] it was more than 10000 nM; in assay [6], 4490 nM. In assay [7], this compound registered an EC50 of more than 10000 nM.
As for `O=C(Nc1cc2cc(-c3cnco3)ccc2cn1)[C@H]1CCCO1` [Compound 974, (R)—N-(6-(Oxazol-5-yl)isoquinolin-3-yl)tetrahydrofuran-2-carboxamide], the EC50 is 3740 nM in assay [1]; 13.5 nM in assay [2]; 96 nM in assay [3]; 2000 nM in assay [4] (setting [8]); 3160 nM in assay [5]; more than 10000 nM in assay [6]. In assay [7], this compound had an EC50 of more than 10000 nM. Further, the results for the inhibition at 10 µM in assay [6] and in assay [7] were 49.6% and 45.9%, respectively.
In the case of `Cc1nnc(-c2ccc3cnc(NC(=O)CN4CCCCC4)cc3c2)s1` [Compound 939, N-(6-(5-Methyl-1,3,4-thiadiazol-2-yl)isoquinolin-3-yl)-2-(piperidin-1-yl) acetamide], the EC50 in assay [1] is 2070 nM; in assay [2], 13.9 nM; in assay [3], 13 nM; in assay [4] (setting [8]), 274 nM; in assay [5], more than 10000 nM; in assay [6], 1140 nM. The EC50 in assay [7] was more than 10000 nM. Besides, the inhibition at 10 µM was found to be 31.6% in assay [5] and 3.6% in assay [7].
As to `COCCN1CCC(C(=O)Nc2cc3cc(-c4cnn(C)c4)ccc3cn2)CC1` [Compound 89, 1-(2-Methoxyethyl)-N-(6-(1-methyl-1H-pyrazol-4-yl)isoquinolin-3-yl) piperidine-4-carboxamide], the EC50 in assay [1] stood at 765 nM; in assay [2], 2.7 nM; in assay [3], 64 nM; in assay [4] (setting [8]) it was 364 nM; in assay [5] it was 738 nM; in assay [6], 137 nM. Further, in assay [7], the EC50 amounted to 1140 nM.
Turning to `CC(C)CN1CCC(F)(C(=O)Nc2cc3cc(-c4nncn4C)ccc3cn2)CC1` [Compound 280, 4-Fluoro-1-isobutyl-N-(6-(4-methyl-4H-1,2,4-triazol-3-yl)isoquinolin-3-yl) piperidine-4-carboxamide], the EC50 worked out at 2320 nM in assay [1]; 10.8 nM in assay [2]; 185 nM in assay [3]; 677 nM in assay [4] (setting [8]); 9570 nM in assay [5]; 909 nM in assay [6]. Moreover, in assay [7], the EC50 is more than 10000 nM. The inhibition at 10 µM in assay [7] was determined as 11.6%.
